Key:
IKZF2 = biological target: T1, IKZF2 (Homo sapiens, UniProt Q96SW2+Q9UKS7); test: Western-blot assay, substrate protein degradation in hPBMCs: IKZF2; type: cell-based; conditions: for IKZF2 substrate protein remaining %: compounds at 50 nM and 500 nM, 24 hours; for substrate protein remaining % IKZF2: 24 hours of compound treatment, 50 nM and 500 nM
T1 construct: effects of the compounds of the present disclosure on the expression of target proteins in cells; endogenous in cells; host or cells: human PBMCs (hPBMCs)
T1 sequence (Q9UKS7 whole entry): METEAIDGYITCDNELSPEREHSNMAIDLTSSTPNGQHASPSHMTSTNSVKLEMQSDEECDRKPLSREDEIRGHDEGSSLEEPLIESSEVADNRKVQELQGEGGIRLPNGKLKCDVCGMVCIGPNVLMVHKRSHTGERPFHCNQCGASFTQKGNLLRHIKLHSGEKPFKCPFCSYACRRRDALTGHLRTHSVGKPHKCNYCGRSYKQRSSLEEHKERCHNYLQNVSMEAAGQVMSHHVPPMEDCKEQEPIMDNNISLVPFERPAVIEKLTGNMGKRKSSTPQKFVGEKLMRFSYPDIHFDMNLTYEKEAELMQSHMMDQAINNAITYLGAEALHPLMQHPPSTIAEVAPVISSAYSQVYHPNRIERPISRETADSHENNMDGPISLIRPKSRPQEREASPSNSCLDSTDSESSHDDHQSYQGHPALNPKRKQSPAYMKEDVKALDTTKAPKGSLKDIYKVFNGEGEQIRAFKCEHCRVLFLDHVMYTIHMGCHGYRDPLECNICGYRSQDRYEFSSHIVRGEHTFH
T1 sequence (Q96SW2 whole entry): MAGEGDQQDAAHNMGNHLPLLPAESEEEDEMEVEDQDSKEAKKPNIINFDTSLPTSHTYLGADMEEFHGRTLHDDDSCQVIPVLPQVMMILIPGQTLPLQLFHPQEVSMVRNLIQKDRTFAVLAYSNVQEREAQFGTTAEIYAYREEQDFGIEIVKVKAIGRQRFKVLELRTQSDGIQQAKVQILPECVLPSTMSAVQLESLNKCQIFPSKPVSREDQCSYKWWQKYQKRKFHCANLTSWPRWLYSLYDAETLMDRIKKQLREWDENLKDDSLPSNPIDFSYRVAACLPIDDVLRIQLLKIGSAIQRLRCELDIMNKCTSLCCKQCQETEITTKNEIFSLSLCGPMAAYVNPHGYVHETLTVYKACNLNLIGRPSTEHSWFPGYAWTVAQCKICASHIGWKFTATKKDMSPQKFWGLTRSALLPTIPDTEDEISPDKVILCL
T1 sequence (Q16531 whole entry partner): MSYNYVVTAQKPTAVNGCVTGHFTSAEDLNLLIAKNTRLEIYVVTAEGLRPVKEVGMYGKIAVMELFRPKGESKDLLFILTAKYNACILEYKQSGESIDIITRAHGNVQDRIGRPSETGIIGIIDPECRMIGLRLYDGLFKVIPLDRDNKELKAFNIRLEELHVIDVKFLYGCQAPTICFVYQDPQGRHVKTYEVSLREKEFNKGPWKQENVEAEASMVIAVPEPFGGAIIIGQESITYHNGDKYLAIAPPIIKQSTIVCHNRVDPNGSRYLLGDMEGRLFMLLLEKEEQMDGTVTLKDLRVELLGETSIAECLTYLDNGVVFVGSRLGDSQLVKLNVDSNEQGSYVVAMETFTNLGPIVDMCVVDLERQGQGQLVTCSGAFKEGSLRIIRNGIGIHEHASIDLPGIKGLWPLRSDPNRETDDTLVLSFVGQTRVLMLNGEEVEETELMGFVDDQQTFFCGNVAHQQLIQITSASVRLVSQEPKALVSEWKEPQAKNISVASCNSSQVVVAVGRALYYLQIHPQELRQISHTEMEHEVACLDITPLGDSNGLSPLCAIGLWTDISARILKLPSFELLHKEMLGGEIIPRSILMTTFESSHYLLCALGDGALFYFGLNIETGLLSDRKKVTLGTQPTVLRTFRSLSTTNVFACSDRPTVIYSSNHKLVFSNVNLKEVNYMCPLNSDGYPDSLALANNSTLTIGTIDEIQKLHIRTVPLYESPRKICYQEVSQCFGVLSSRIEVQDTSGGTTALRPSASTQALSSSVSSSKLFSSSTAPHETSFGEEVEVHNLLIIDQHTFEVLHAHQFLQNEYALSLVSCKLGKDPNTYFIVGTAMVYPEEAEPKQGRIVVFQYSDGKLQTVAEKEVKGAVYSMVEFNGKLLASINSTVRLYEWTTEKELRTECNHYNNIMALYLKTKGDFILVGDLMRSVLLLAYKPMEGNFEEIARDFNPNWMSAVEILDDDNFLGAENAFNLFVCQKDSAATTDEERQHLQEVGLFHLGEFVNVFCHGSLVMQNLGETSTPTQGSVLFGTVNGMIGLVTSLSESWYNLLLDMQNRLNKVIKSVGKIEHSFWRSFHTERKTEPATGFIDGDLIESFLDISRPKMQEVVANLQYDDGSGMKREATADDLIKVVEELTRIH

Jurkat = test: Cell viability assay (CellTiter-Meiluncell Luminescent), tumor cell proliferation, Jurkat; conditions: Homo sapiens, 96 h, read-out: inhibitory activity (IC50, nM) against tumor cells proliferation, Jurkat
Description: On the following day, the test compounds of the present disclosure were subjected to serial dilution. […] Subsequently, 0.5 µL of the test compound dilution was transferred into the 96-well plate containing the cells, with each well containing 100 µL of cell culture medium. […] Into the 96-well plate, the diluted test compounds and corresponding detection reagents were added, resulting in final test compound concentrations of 500 nM and 10 nM, respectively.
(§1) After the cells were treated with the compounds of the present disclosure for a specified period, the cell viability assay reagent was added to the culture medium according to the kit's instructions to determine cell viability. […] All controls were treated using the same procedure as the compounds of the present disclosure. The growth inhibition curves for the compounds of the present disclosure were plotted using Prism GraphPad software, and the IC50 values were calculated therefrom.

IKZF1 = biological target: T2, IKZF1 (Homo sapiens, UniProt Q13422+Q96SW2); test: Western-blot assay, substrate protein degradation in hPBMCs: IKZF1; type: cell-based; conditions: for IKZF1 substrate protein remaining %: compounds at 50 nM and 500 nM, 24 hours; for substrate protein remaining % IKZF1: 24 hours of compound treatment, 50 nM and 500 nM
T2 construct: effects of the compounds of the present disclosure on the expression of target proteins in cells; endogenous in cells; host or cells: human PBMCs (hPBMCs)
T2 sequence (Q13422 whole entry): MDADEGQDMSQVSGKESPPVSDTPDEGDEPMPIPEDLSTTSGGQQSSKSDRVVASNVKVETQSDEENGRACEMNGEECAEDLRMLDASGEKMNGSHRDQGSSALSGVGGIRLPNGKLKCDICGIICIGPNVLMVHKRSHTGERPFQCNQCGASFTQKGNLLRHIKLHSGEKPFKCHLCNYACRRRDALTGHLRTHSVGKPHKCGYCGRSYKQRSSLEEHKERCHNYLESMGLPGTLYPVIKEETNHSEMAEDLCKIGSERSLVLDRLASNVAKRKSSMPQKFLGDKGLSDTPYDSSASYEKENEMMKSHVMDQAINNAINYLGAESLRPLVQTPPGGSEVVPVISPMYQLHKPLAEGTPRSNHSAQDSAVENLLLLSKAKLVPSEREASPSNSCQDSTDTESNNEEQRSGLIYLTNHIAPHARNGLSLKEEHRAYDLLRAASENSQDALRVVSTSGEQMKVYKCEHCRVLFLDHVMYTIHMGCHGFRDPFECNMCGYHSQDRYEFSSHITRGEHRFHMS
T2 sequence (Q96SW2 whole entry): as the sequence (Q96SW2 whole entry) above
T2 sequence (Q16531 whole entry partner): as the sequence (Q16531 whole entry partner) above

CK1α = biological target: T3, CK1α (Homo sapiens, UniProt P48729+Q96SW2); test: Western-blot assay, substrate protein degradation in hPBMCs: CK1α; type: cell-based; conditions: for CK1α substrate protein remaining %: compounds at 50 nM and 500 nM, 24 hours; for substrate protein remaining % CK1α: 24 hours of compound treatment, 50 nM and 500 nM
T3 construct: effects of the compounds of the present disclosure on the expression of target proteins in cells; endogenous in cells; host or cells: human PBMCs (hPBMCs)
T3 sequence (P48729 whole entry): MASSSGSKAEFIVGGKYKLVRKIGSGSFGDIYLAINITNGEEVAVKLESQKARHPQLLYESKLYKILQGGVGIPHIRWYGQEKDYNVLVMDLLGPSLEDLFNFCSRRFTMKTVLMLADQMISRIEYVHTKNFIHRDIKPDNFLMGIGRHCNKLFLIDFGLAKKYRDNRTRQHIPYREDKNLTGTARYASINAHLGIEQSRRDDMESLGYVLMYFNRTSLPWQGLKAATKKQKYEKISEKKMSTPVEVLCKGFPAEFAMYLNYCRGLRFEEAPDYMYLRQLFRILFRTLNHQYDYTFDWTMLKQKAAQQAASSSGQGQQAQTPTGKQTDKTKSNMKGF
T3 sequence (Q96SW2 whole entry): as the sequence (Q96SW2 whole entry) above
T3 sequence (Q16531 whole entry partner): as the sequence (Q16531 whole entry partner) above

WEE1 = biological target: T4, WEE1 (Homo sapiens, UniProt P30291+Q96SW2); test: Western-blot assay, substrate protein degradation in hPBMCs: WEE1; type: cell-based; conditions: for WEE1 substrate protein remaining %: compounds at 50 nM and 500 nM, 24 hours; for substrate protein remaining % WEE1: 24 hours of compound treatment, 50 nM and 500 nM
T4 construct: effects of the compounds of the present disclosure on the expression of target proteins in cells; endogenous in cells; host or cells: human PBMCs (hPBMCs)

IKZF3 = biological target: T5, IKZF3 (Homo sapiens, UniProt Q96SW2+Q9UKT9); test: Western-blot assay, substrate protein degradation in hPBMCs: IKZF3; type: cell-based; conditions: for IKZF3 substrate protein remaining %: compounds at 50 nM and 500 nM, 24 hours; for substrate protein remaining % IKZF3: 24 hours of compound treatment, 50 nM and 500 nM
T5 construct: effects of the compounds of the present disclosure on the expression of target proteins in cells; endogenous in cells; host or cells: human PBMCs (hPBMCs)
T5 sequence (Q9UKT9 whole entry): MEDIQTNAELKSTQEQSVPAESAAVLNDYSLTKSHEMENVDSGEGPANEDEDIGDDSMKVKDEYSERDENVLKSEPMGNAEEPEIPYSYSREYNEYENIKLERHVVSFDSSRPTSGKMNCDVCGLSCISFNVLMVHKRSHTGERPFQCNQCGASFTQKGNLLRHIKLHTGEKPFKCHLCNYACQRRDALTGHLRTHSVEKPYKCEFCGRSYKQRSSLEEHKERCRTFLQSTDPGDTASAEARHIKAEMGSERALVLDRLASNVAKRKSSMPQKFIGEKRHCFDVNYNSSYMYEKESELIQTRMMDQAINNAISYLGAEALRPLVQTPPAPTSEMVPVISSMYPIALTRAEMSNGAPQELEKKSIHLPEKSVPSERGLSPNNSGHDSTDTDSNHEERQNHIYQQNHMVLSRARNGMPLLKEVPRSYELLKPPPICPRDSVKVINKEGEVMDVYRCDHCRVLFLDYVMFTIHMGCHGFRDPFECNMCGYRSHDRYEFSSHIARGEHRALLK
T5 sequence (Q96SW2 whole entry): as the sequence (Q96SW2 whole entry) above
T5 sequence (Q16531 whole entry partner): as the sequence (Q16531 whole entry partner) above

MV-4-11 = test: Cell viability assay (CellTiter-Meiluncell Luminescent), tumor cell proliferation, MV-4-11; conditions: Homo sapiens, MV4-11, 96 h; for IC50: read-out: inhibitory activity (IC50, nM) against tumor cells proliferation, MV-4-11; for inhibition at 0.01 µM: read-out: Inhibition Rate at 10 nM (%); for inhibition at 0.5 µM: read-out: Inhibition Rate at 500 nM (%)
GSPT1 = biological target: T6, GSPT1 (Homo sapiens, UniProt P15170+Q96SW2); test: Western-blot assay, substrate protein degradation in hPBMCs: GSPT1; type: cell-based; conditions: for GSPT1 substrate protein remaining %: compounds at 50 nM and 500 nM, 24 hours; for substrate protein remaining % GSPT1: 24 hours of compound treatment, 50 nM and 500 nM
T6 construct: effects of the compounds of the present disclosure on the expression of target proteins in cells; endogenous in cells; host or cells: human PBMCs (hPBMCs)
T6 sequence (P15170 whole entry): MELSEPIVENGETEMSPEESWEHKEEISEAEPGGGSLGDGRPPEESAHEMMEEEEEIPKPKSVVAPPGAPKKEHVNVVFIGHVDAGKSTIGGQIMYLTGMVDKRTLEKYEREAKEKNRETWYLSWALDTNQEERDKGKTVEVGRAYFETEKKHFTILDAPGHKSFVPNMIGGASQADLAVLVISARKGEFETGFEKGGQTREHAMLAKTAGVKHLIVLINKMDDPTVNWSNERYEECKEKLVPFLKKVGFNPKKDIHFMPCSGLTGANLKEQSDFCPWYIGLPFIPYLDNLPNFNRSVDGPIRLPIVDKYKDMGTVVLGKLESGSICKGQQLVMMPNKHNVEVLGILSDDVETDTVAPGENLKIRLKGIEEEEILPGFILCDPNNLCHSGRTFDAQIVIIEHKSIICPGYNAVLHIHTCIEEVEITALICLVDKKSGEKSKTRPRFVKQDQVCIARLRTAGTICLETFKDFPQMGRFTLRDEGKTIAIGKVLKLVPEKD
T6 sequence (Q96SW2 whole entry): as the sequence (Q96SW2 whole entry) above
T6 sequence (Q16531 whole entry partner): as the sequence (Q16531 whole entry partner) above

H292 = test: Cell viability assay (CellTiter-Meiluncell Luminescent), tumor cell proliferation, H292; conditions: Homo sapiens, NCI-H292, 96 h; for inhibition at 0.01 µM: read-out: Inhibition Rate at 10 nM (%); for inhibition at 0.5 µM: read-out: Inhibition Rate at 500 nM (%)
Description: (§2) The tumor cells used herein were cultured in a cell culture medium listed in table 2 at 37°C in an incubator with 5% CO2. Prior to experimentation, all cell lines used were correctly identified by STR profiling, and tested negative for mycoplasma contamination using a mycoplasma detection kit through routine screenings.
(§3) On the following day, the test compounds of the present disclosure were subjected to serial dilution. […] Subsequently, 0.5 µL of the test compound dilution was transferred into the 96-well plate containing the cells, with each well containing 100 µL of cell culture medium. […] Into the 96-well plate, the diluted test compounds and corresponding detection reagents were added, resulting in final test compound concentrations of 500 nM and 10 nM, respectively. The experimental procedure is described below using the diluted 2 µM test compound as an example.
as §1

H2228 = test: Cell viability assay (CellTiter-Meiluncell Luminescent), tumor cell proliferation, H2228; conditions: Homo sapiens, NCI-H2228, 96 h; for inhibition at 0.01 µM: read-out: Inhibition Rate at 10 nM (%); for inhibition at 0.5 µM: read-out: Inhibition Rate at 500 nM (%)
Description: as §2, §3, §1

MDA-MB-231 = test: Cell viability assay (CellTiter-Meiluncell Luminescent), tumor cell proliferation, MDA-MB-231; conditions: Homo sapiens, MDA-MB-231, 96 h; for inhibition at 0.01 µM: read-out: Inhibition Rate at 10 nM (%); for inhibition at 0.5 µM: read-out: Inhibition Rate at 500 nM (%)
Description: as §2, §3, §1

MM.1S = test: Cell viability assay (CellTiter-Meiluncell Luminescent), tumor cell proliferation, MM.1S; conditions: Homo sapiens, MM1.S, 96 h; for inhibition at 0.01 µM: read-out: Inhibition Rate at 10 nM (%); for inhibition at 0.5 µM: read-out: Inhibition Rate at 500 nM (%)

Structure (SMILES)	IKZF2 substrate protein remaining % (IKZF2)	IC50 (Jurkat) [nM]	IKZF1 substrate protein remaining % (IKZF1)	CK1α substrate protein remaining % (CK1α)	WEE1 substrate protein remaining % (WEE1)	IKZF3 substrate protein remaining % (IKZF3)	GSPT1 substrate protein remaining % (GSPT1)	substrate protein remaining % IKZF2 (IKZF2)	substrate protein remaining % IKZF1 (IKZF1)	inhibition at 0.01 µM (H292) [%]	inhibition at 0.5 µM (H292) [%]	inhibition at 0.01 µM (H2228) [%]	inhibition at 0.5 µM (H2228) [%]	substrate protein remaining % CK1α (CK1α)	substrate protein remaining % WEE1 (WEE1)	substrate protein remaining % IKZF3 (IKZF3)	inhibition at 0.01 µM (MV-4-11) [%]	inhibition at 0.5 µM (MV-4-11) [%]	inhibition at 0.01 µM (MDA-MB-231) [%]	inhibition at 0.5 µM (MDA-MB-231) [%]	further results
Cc1cccc(N2CCN(Cc3ccc4c(c3)CN(N3CCC(=O)NC3=O)C4=O)CC2)c1 [GT-06770, 1-(1-oxo-5-((4-(m-tolyl)piperazin-1-yl)methyl)isoindolin-2-yl)dihydropyrimidine-2,4(1H,3H)-dione]	A ("A" is defined as 0% ≤ substrate protein remaining % ≤ 80%)	500 to 1000	A ("A" is defined as 0% ≤ substrate protein remaining % ≤ 80%)	A ("A" is defined as 0% ≤ substrate protein remaining % ≤ 80%)	A ("A" is defined as 0% ≤ substrate protein remaining % ≤ 80%)	A ("A" is defined as 0% ≤ substrate protein remaining % ≤ 80%)	A ("A" is defined as 0% ≤ substrate protein remaining % ≤ 80%)	–	–	–	–	–	–	–	–	–	–	–	–	–	IC50 (MV-4-11): 500 to 1000 nM
O=C1CCN(N2Cc3cc(CN4CCN(c5cc(Cl)cc(Cl)c5)CC4)ccc3C2=O)C(=O)N1 [GT-06776, 1-(5-((4-(3,5-dichlorophenyl)piperazin-1-yl)methyl)-1-oxoisoindolin-2-yl)dihydropyrimidine-2,4(1H,3H)-dione]	A ("A" is defined as 0% ≤ substrate protein remaining % ≤ 80%)	500 to 1000	B ("B" is defined as 80%< substrate protein remaining %≤ 100%)	A ("A" is defined as 0% ≤ substrate protein remaining % ≤ 80%)	A ("A" is defined as 0% ≤ substrate protein remaining % ≤ 80%)	B ("B" is defined as 80%< substrate protein remaining %≤ 100%)	A ("A" is defined as 0% ≤ substrate protein remaining % ≤ 80%)	–	–	–	–	–	–	–	–	–	–	–	–	–	IC50 (MV-4-11): 100 to 300 nM
O=C1CCN(N2Cc3cc(CN4CCC(c5cccc(Cl)c5Cl)CC4)ccc3C2=O)C(=O)N1 [GT-06893, 1-(5-((4-(2,3-dichlorophenyl)piperidin-1-yl)methyl)-1-oxoisoindolin-2-yl)dihydropyrimidine-2,4(1H,3H)-dione]	A ("A" is defined as 0% ≤ substrate protein remaining % ≤ 80%)	500 to 1000	A ("A" is defined as 0% ≤ substrate protein remaining % ≤ 80%)	B ("B" is defined as 80%< substrate protein remaining %≤ 100%)	B ("B" is defined as 80%< substrate protein remaining %≤ 100%)	B ("B" is defined as 80%< substrate protein remaining %≤ 100%)	A ("A" is defined as 0% ≤ substrate protein remaining % ≤ 80%)	–	–	–	–	–	–	–	–	–	–	–	–	–	IC50 (MV-4-11): 100 to 300 nM
O=C1CCN(N2C(=O)c3ccc(CN4CCN(c5ncc(C(F)(F)F)cc5Cl)CC4)cc3C2=O)C(=O)N1 [GT-07026, 5-((4-(3-chloro-5-(trifluoromethyl)pyridin-2-yl)piperazin-1-yl)methyl)-2-(2,4-dioxotetrahydropyrimidin-1(2H)-yl)isoindoline-1,3-dione]	B ("B" is defined as 80%< substrate protein remaining %≤ 100%)	500 to 1000	B ("B" is defined as 80%< substrate protein remaining %≤ 100%)	B ("B" is defined as 80%< substrate protein remaining %≤ 100%)	A ("A" is defined as 0% ≤ substrate protein remaining % ≤ 80%)	B ("B" is defined as 80%< substrate protein remaining %≤ 100%)	A ("A" is defined as 0% ≤ substrate protein remaining % ≤ 80%)	–	–	–	–	–	–	–	–	–	–	–	–	–	–
O=C1CCN(N2Cc3cc(CN4CCC(c5ncnc6sc(-c7ccccc7)cc56)CC4)ccc3C2=O)C(=O)N1 [GT-08085, 1-(1-oxo-5-((4-(6-phenylthieno[2,3-d]pyrimidin-4-yl)piperidin-1-yl)methyl)isoindolin-2-yl)dihydropyrimidine-2,4(1H,3H)-dione]	–	–	–	–	–	–	–	B (80%< substrate protein remaining %≤ 100%)	B (80%< substrate protein remaining %≤ 100%)	20 to 40	40 to 60	25 to 30	30 to 40	A (0% ≤ substrate protein remaining % ≤ 80%)	B (80%< substrate protein remaining %≤ 100%)	B (80%< substrate protein remaining %≤ 100%)	30 to 40	25 to 30	25 to 40	40 to 60	substrate protein remaining % GSPT1 (GSPT1): A (0% ≤ substrate protein remaining % ≤ 80%); inhibition at 0.01 µM (MM.1S): 30 to 42%; inhibition at 0.5 µM (MM.1S): 42 to 60%
Cc1nc(C2CCN(Cc3ccc4c(c3)CN(N3CCC(=O)NC3=O)C4=O)CC2)c2ccsc2n1 [GT-08088, 1-(5-((4-(2-methylthieno[2,3-d]pyrimidin-4-yl)piperidin-1-yl)methyl)-1-oxoisoindolin-2-yl)dihydropyrimidine-2,4(1H,3H)-dione]	–	–	–	–	–	–	–	B (80%< substrate protein remaining %≤ 100%)	B (80%< substrate protein remaining %≤ 100%)	20 to 40	20 to 40	25 to 30	25 to 30	A (0% ≤ substrate protein remaining % ≤ 80%)	A (0% ≤ substrate protein remaining % ≤ 80%)	B (80%< substrate protein remaining %≤ 100%)	40 to 60	30 to 40	18 to 25	25 to 40	substrate protein remaining % GSPT1 (GSPT1): A (0% ≤ substrate protein remaining % ≤ 80%); inhibition at 0.01 µM (MM.1S): 42 to 60%; inhibition at 0.5 µM (MM.1S): 42 to 60%
O=C1CCN(N2C(=O)c3ccc(CN4CCN(c5ncnc6sccc56)CC4)cc3C2=O)C(=O)N1 [GT-08090, 2-(2,4-dioxotetrahydropyrimidin-1(2H)-yl)-5-((4-(thieno[2,3-d]pyrimidin-4-yl)piperazin-1-yl)methyl)isoindoline-1,3-dione]	–	–	–	–	–	–	–	B (80%< substrate protein remaining %≤ 100%)	B (80%< substrate protein remaining %≤ 100%)	15 to 20	15 to 20	20 to 25	20 to 25	A (0% ≤ substrate protein remaining % ≤ 80%)	A (0% ≤ substrate protein remaining % ≤ 80%)	B (80%< substrate protein remaining %≤ 100%)	60 to 80	60 to 80	15 to 18	18 to 25	substrate protein remaining % GSPT1 (GSPT1): A (0% ≤ substrate protein remaining % ≤ 80%); inhibition at 0.01 µM (MM.1S): 30 to 42%; inhibition at 0.5 µM (MM.1S): 42 to 60%
O=C1CCN(N2Cc3cc(CN4CC=C(c5ncnc6sccc56)CC4)ccc3C2=O)C(=O)N1 [GT-08116, 1-(1-oxo-5-((4-(thieno[2,3-d]pyrimidin-4-yl)-3,6-dihydropyridin-1(2H)-yl)methyl)isoindolin-2-yl)dihydropyrimidine-2,4(1H,3H)-dione]	–	–	–	–	–	–	–	B (80%< substrate protein remaining %≤ 100%)	A (0% ≤ substrate protein remaining % ≤ 80%)	15 to 20	15 to 20	15 to 20	20 to 25	A (0% ≤ substrate protein remaining % ≤ 80%)	A (0% ≤ substrate protein remaining % ≤ 80%)	A (0% ≤ substrate protein remaining % ≤ 80%)	40 to 60	80 to 100	25 to 40	25 to 40	substrate protein remaining % GSPT1 (GSPT1): A (0% ≤ substrate protein remaining % ≤ 80%); inhibition at 0.01 µM (MM.1S): 10 to 20%; inhibition at 0.5 µM (MM.1S): 60 to 80%

Source: patent EP4722207A1, “OXOISOINDOLINYL-SUBSTITUTED TETRAHYDROPYRIMIDINEDIONE DERIVATIVE AND USE THEREOF” (Gluetacs Therapeutics (Shanghai) Co., Ltd., priority 2023, dated 2024)
